Assay results published in patent US12084435B2, “Pyridine ring-substituted pyridazinol compounds and derivatives, preparation methods, herbicidal compositions and applications thereof” (Qingdao Kingagroot Chemical Compound Co., Ltd., priority 2018, dated 2024).

Assays:
[1] = system: monocotyledonous and dicotyledonous weed; test: Post-emergence test, weed control effect (Tables 6 and 7); format: in vivo; set-up: key: 10: completely dead; above 90% growth inhibition rate; above 80% growth inhibition rate; above 70% growth inhibition rate; above 60% growth inhibition rate; above 50% growth inhibition rate; above 40% growth inhibition rate; above 30% growth inhibition rate; above 20% growth inhibition rate; 1: below 20% growth inhibition rate; 0: no effect; details: for comparison experiment (activity level), Digitaria sanguinalis / comparison experiment (activity level), Echinochloa crus-galli / comparison experiment (activity level), Galium aparine / comparison experiment (activity level), Rorippa indica / comparison experiment (activity level), Setaria viridis / comparison experiment (activity level), Veronica polita: Dose 300 g/ha; for weed control effect (activity level), Amaranthus retroflexus / weed control effect (activity level), Chenopodiaceae / weed control effect (activity level), Rorippa indica / weed control effect (activity level), Veronica polita: after 3 weeks
Description: The above described growth inhibition rates are fresh weight inhibition rates. Experiment of post-emergence test: monocotyledonous and dicotyledonous weed seeds as well as main crop seeds (i.e., wheat, corn, rice, soybean, cotton, oilseed rape, millet and sorghum) were put into aplastic pot loaded with soil, then covered with 0.5-2 cm of soil, and the seeds were allowed to grow in good greenhouse environment. The test plants were treated at 4-5 leaf stage 2-3 week […] sowing. The test compounds of the invention were dissolved in acetone respectively, then added with Tween-80 and diluted by a certain amount of water to give solutions with certain concentrations. The solution was sprayed to the plants with as prayer. The plants were cultured for 3 weeks in the greenhouse.

[2] = system: Echinochloa crusgalli, Scirpus juncoides, Sagittaria trifolia L. and Bidens tripartite; test: Resistance tests of the collected rice-field weeds; format: in vivo; details: common rate; weed seeds collected from Heilongjiang Province of China
From the text: Note: The seeds of Echinochloa crusgalli, Scirpus juncoides, Sagittaria trifolia L. and Bidens tripartite were collected from Heilongjiang Province of China.

Row | SMILES | weed control effect (activity level), Amaranthus retroflexus ([1]; Dose 2000 g/ha) | weed control effect (activity level), Chenopodiaceae ([1]; Dose 2000 g/ha) | weed control effect (activity level), Rorippa indica ([1]; Dose 2000 g/ha) | weed control effect (activity level), Veronica polita ([1]; Dose 2000 g/ha) | further results
1 | Oc1cc(Cl)nnc1-c1cncc(F)c1 [Compound 1-4] | 10 | 10 | 10 | 10 | comparison experiment (activity level), Digitaria sanguinalis [1]: 8 (above 80% growth inhibition rate); comparison experiment (activity level), Echinochloa crus-galli [1]: 8 (above 80% growth inhibition rate); comparison experiment (activity level), Galium aparine [1]: 10; comparison experiment (activity level), Rorippa indica [1]: 10; comparison experiment (activity level), Setaria viridis [1]: 10; comparison experiment (activity level), Veronica polita [1]: 10
2 | CCCCCCCCSC(=O)Oc1cc(Cl)nnc1-c1ccccc1 [Control Compound B, reference compound] | – | – | – | – | comparison experiment (activity level), Digitaria sanguinalis [1]: 0; comparison experiment (activity level), Echinochloa crus-galli [1]: 0; comparison experiment (activity level), Galium aparine [1]: 4 (above 40% growth inhibition rate); comparison experiment (activity level), Rorippa indica [1]: 3 (above 30% growth inhibition rate); comparison experiment (activity level), Setaria viridis [1]: 2 (above 20% growth inhibition rate); comparison experiment (activity level), Veronica polita [1]: 6 (above 60% growth inhibition rate)
3 | Oc1cc(Cl)nnc1-c1ccc(Cl)cn1 [Compound 3-7] | 10 | 10 | 10 | 10 | –
4 | Oc1cc(Cl)nnc1-c1cccnc1 [Compound 1-1] | 10 | 10 | 10 | 10 | comparison experiment (activity level), Digitaria sanguinalis [1]: 7 (above 70% growth inhibition rate); comparison experiment (activity level), Echinochloa crus-galli [1]: 8 (above 80% growth inhibition rate); comparison experiment (activity level), Galium aparine [1]: 9 (above 90% growth inhibition rate); comparison experiment (activity level), Rorippa indica [1]: 10; comparison experiment (activity level), Setaria viridis [1]: 10; comparison experiment (activity level), Veronica polita [1]: 9 (above 90% growth inhibition rate)
5 | Oc1cc(Cl)nnc1-c1ccc(Br)nc1 [Compound 1-11] | 10 | 10 | 10 | 10 | –
6 | Oc1cc(Cl)nnc1-c1ccc(F)nc1F [Compound 1-57] | 10 | 10 | 10 | 10 | –
7 | Oc1cc(Cl)nnc1-c1ccc(F)nc1 [Compound 1-3] | 10 | 10 | 10 | 10 | –
8 | Oc1cc(Cl)nnc1-c1cc(F)nc(F)c1 [Compound 2-13] | – | – | – | – | weed control effect (activity level), Amaranthus retroflexus ([1]; Dose 1000 g/ha): 10; weed control effect (activity level), Chenopodiaceae ([1]; Dose 1000 g/ha): 10; weed control effect (activity level), Rorippa indica ([1]; Dose 1000 g/ha): 10; weed control effect (activity level), Veronica polita ([1]; Dose 1000 g/ha): 10
9 | Oc1cc(Cl)nnc1-c1ccnc(F)c1 [Compound 2-3] | – | – | – | – | comparison experiment (activity level), Digitaria sanguinalis [1]: 10; comparison experiment (activity level), Echinochloa crus-galli [1]: 10; comparison experiment (activity level), Galium aparine [1]: 10; comparison experiment (activity level), Rorippa indica [1]: 10; comparison experiment (activity level), Setaria viridis [1]: 10; comparison experiment (activity level), Veronica polita [1]: 10; weed control effect (activity level), Amaranthus retroflexus ([1]; Dose 1000 g/ha): 10; weed control effect (activity level), Chenopodiaceae ([1]; Dose 1000 g/ha): 10; weed control effect (activity level), Rorippa indica ([1]; Dose 1000 g/ha): 10; weed control effect (activity level), Veronica polita ([1]; Dose 1000 g/ha): 10
10 | Oc1cc(Cl)nnc1-c1cnc(F)c(F)c1 [Compound 1-60] | 10 | 10 | 10 | 7 (above 70% growth inhibition rate) | –
11 | Oc1cc(Cl)nnc1-c1cc(F)ncc1F [Compound 2-11] | – | – | – | – | weed control effect (activity level), Amaranthus retroflexus ([1]; Dose 1000 g/ha): 10; weed control effect (activity level), Chenopodiaceae ([1]; Dose 1000 g/ha): 10; weed control effect (activity level), Rorippa indica ([1]; Dose 1000 g/ha): 10; weed control effect (activity level), Veronica polita ([1]; Dose 1000 g/ha): 10
12 | Oc1cc(C(F)(F)C(F)(F)F)nnc1-c1ccc(F)nc1F [Compound 1-131] | – | – | – | – | weed control effect (activity level), Amaranthus retroflexus ([1]; Dose 3000 g/ha): 10; weed control effect (activity level), Chenopodiaceae ([1]; Dose 3000 g/ha): 10; weed control effect (activity level), Rorippa indica ([1]; Dose 3000 g/ha): 10; weed control effect (activity level), Veronica polita ([1]; Dose 3000 g/ha): 10
13 | Cc1nc(F)ccc1-c1nnc(Cl)cc1O [Compound 1-90] | 10 | 10 | 10 | 7 (above 70% growth inhibition rate) | –
14 | Oc1cc(Cl)nnc1-c1cc(F)c(F)nc1F [Compound 1-105] | 10 | 10 | 10 | 10 | –
15 | Oc1cc(Cl)nnc1-c1cc(F)cnc1F [Compound 1-58] | 10 | 10 | 10 | 10 | –
16 | Oc1cc(Cl)nnc1-c1cccnc1F [Compound 1-2] | 10 | 10 | 10 | 10 | comparison experiment (activity level), Digitaria sanguinalis [1]: 8 (above 80% growth inhibition rate); comparison experiment (activity level), Echinochloa crus-galli [1]: 10; comparison experiment (activity level), Galium aparine [1]: 9 (above 90% growth inhibition rate); comparison experiment (activity level), Rorippa indica [1]: 10; comparison experiment (activity level), Setaria viridis [1]: 10; comparison experiment (activity level), Veronica polita [1]: 10
17 | Oc1cc(Cl)nnc1-c1ccc(Cl)c(F)n1 [Compound 3-30] | 10 | 10 | 10 | 10 | –
18 | Oc1cc(Cl)nnc1-c1ccc(Cl)nc1Cl [Compound 1-63] | 10 | 10 | 10 | 10 | –
19 | Oc1cc(Cl)nnc1-c1cccnc1Cl [Compound 1-6] | 10 | 10 | 10 | 7 (above 70% growth inhibition rate) | –
20 | Oc1cc(Cl)nnc1-c1ccc(C(F)(F)F)nc1 [Compound 1-23] | 10 | 10 | 10 | 10 | –
21 | Oc1cc(Cl)nnc1-c1ccnc(F)c1F [Compound 2-10] | – | – | – | – | weed control effect (activity level), Amaranthus retroflexus ([1]; Dose 1000 g/ha): 10; weed control effect (activity level), Chenopodiaceae ([1]; Dose 1000 g/ha): 10; weed control effect (activity level), Rorippa indica ([1]; Dose 1000 g/ha): 10; weed control effect (activity level), Veronica polita ([1]; Dose 1000 g/ha): 10
22 | Oc1cc(Cl)nnc1-c1ccnc(Cl)c1 [Compound 2-5] | – | – | – | – | weed control effect (activity level), Amaranthus retroflexus ([1]; Dose 1000 g/ha): 10; weed control effect (activity level), Chenopodiaceae ([1]; Dose 1000 g/ha): 10; weed control effect (activity level), Rorippa indica ([1]; Dose 1000 g/ha): 10; weed control effect (activity level), Veronica polita ([1]; Dose 1000 g/ha): 10
23 | Oc1cc(Cl)nnc1-c1cc(Cl)ccn1 [Compound 3-8] | 10 | 10 | 10 | 10 | –
24 | Oc1cc(Cl)nnc1-c1ccc(F)c(F)n1 [Compound 3-18] | 10 | 10 | 10 | 10 | –
25 | CCOC(=O)c1cnn(C)c1S(=O)(=O)NC(=O)Nc1nc(OC)cc(OC)n1 [pyrazosulfuron-ethyl] | – | – | – | – | resistance of the weeds to the herbicide [2]: resistant
26 | Oc1cc(Cl)nnc1-c1cc(F)cc(F)n1 [Compound 3-19] | 10 | 10 | 10 | 10 | –
27 | Oc1cc(Cl)nnc1-c1ccc(F)cn1 [Compound 3-3] | 10 | 10 | 10 | 10 | –
28 | Oc1cc(Cl)nnc1-c1cncc(Cl)c1 [Compound 1-8] | 10 | 10 | 10 | 10 | –
29 | Oc1cc(Cl)nnc1-c1cnccc1F [Compound 1-5] | 10 | 10 | 10 | 10 | –
30 | Oc1cc(Cl)nnc1-c1cc(F)nc(Cl)c1 [Compound 2-23] | – | – | – | – | weed control effect (activity level), Amaranthus retroflexus ([1]; Dose 1000 g/ha): 10; weed control effect (activity level), Chenopodiaceae ([1]; Dose 1000 g/ha): 10; weed control effect (activity level), Rorippa indica ([1]; Dose 1000 g/ha): 10; weed control effect (activity level), Veronica polita ([1]; Dose 1000 g/ha): 10
